The source of these data is patent US20230414764A1, “Template Assembly by Proximity-Enhanced Reactivity via Metabolic Labeling” (The General Hospital Corporation, priority 2020, published 2023).

The subject of data set [1] is murine ovarian cancer cell line ID8. The data set is described as follows: Metabolic labeling (AzNAM/DPEG-FAM) of ID8 cells, flow cytometric analysis. Format: cell-based. From the text:
For Examples 7-11, metabolic labeling was monitored by treatment of cultured cells with the sugar analog peracetylated N-azidoacetylmannosamine (AzNAM), followed after harvest with treatment with the bifunctional click/fluorescent compound DBCO-PEG3-FAM (DPEG-FAM). Surface azide groups resulting from the metabolic labeling process react with the DBCO group (dibenzocyclooctyne) of DPEG-FAM, and were monitored by flow cytometry.
The murine ovarian cancer cell line ID8 represent an example of a cell type giving a relatively low metabolic labeling response, as assessed by AzNAM/DPEG-FAM as usual, results shown in FIGS. 22A-22D. Subconfluent ID8 cells were treated with or without 100 ng/ml murine interferon-beta (mIFNβ), and then treated with AzNAM and DPEG-FAM in a similar manner as for the Jurkat cells of Examples 7 and 8. […] FIGS. 22A-22D show flow cytometric analysis of murine ID8 cells after treatment with 100 ng/ml murine IFN-beta for 3 days, with addition of 100 μM AzNAM at 22 hr prior to harvest. Cells were treated with DPEG-FAM prior to flow analysis.
The murine-specific STING agonist DMXAA (R&D Systems) was used to test ID8 cells with a similar experimental arrangement as for Example 9. […] FIGS. 24A-24D show flow cytometric analysis of murine ID8 cells after treatment with 20 μM murine STING agonist DMXAA for 3 days, with addition of 100 μM AzNAM at 22 hr prior to harvest. Cells were treated with DPEG-FAM prior to flow analysis.
Background: A flow cytometer gives signals particle by particle.

Data set [2] concerns HeLa cells. Kind of data set: Detection of cell-surface template on AzNAM-labeled HeLa cells with bi-labeled FAM complementary probe, flow analysis. It counts as cell-based, human. To be noted: AzNAM-treated HeLa cells with surface template; 800 pmol probe, 30 minutes. From the text: Specific cell surface template (positioned by means of click chemical reactions with metabolically derived surface AzNAM; as described in Example 3) can be detected with alternate methods. One such approach uses probe nucleic acid molecules that are complementary to the template of interest, where both 5′- and 3′-ends of such probes are both modified with a fluorescent group, such as FAM.
For example, HeLa cells with surface template of the same sequence as in Example 3 but with a DNA backbone were treated with a 5′/3′ bi-labeled complementary probe of sequence: […] (SEQ ID NO:72). The same cells were also treated with a control bi-labeled scrambled oligonucleotide of sequence CTT […] (SEQ ID NO:73). For treatments, 10^5 washed AzNAM-labeled HeLa cells in 100 μl of serum-free RPMI 1640 medium were incubated with 800 pmol of complementary or scrambled bi-labeled oligonucleotides for 30 minutes at room temperature. Cells were centrifuged (3 minutes at 2000 rpm) and washed once with 500 μl of serum-free RPMI 1640 medium and once with the same volume of PBS. Cells were finally resuspended in 200 μl of PBS and subjected to standard flow analysis.

Data set [3] deals with Jurkat cells (human T lymphoma). The data set is described as follows: Metabolic labeling (AzNAM/DPEG-FAM) of Jurkat cells, flow cytometric analysis. It counts as cell-based. As to the method: Surface azide groups resulting from the metabolic labeling process react with the DBCO group (dibenzocyclooctyne) of DPEG-FAM, and were monitored by flow cytometry.
22 hr prior to harvest, cell media were supplemented with […] AzNAM or control solvent only (DMSO). After harvest and washing, cells (10^6 cells/ml) were treated with 2 mM DPEG-FAM, washed, and subjected to flow cytometric analysis. […] FIGS. 20A-20D show flow cytometric analysis of human Jurkat cells after treatment with 100 ng/ml human IFN-beta for three days, with addition of 100 μM AzNAM at 22 hr prior to harvest. Cells were treated with DPEG-FAM prior to flow analysis.
FIGS. 21A-21D show flow cytometric analysis of human Jurkat cells after treatment with 75 ng/ml human IFN-beta for 3 days, with addition of 100 μM AzNAM at 22 hr prior to harvest. Cells were treated with DPEG-FAM prior to flow analysis.
FIGS. 23A-23D show flow cytometric analysis of human Jurkat cells after treatment with 50 μM STING agonist 1 (STAG1) for 3 days, with addition of 100 μM AzNAM at 22 hr prior to harvest. Cells were treated with DPEG-FAM prior to flow analysis.

Data set [4] relates to HeLa cells. The data set is described as follows: Flow cytometry of AzNAM-labeled HeLa cells reacted with DBCO-FAM. Conditions: AzNAM 125 μM, 20 hours, versus cells receiving no azide-modified sugar. It counts as cell-based, human. The method, then:
In separate cultures, HeLa cells were added to wells of a 12-well plate at 10,000 cells/well, and cultured for 72 hours under normal conditions. The wells were washed with 1 ml of PBS, and 0.5 ml of DMEM-10% FBS was added. AzNAM was added to a final concentration of 125 μM, with cells receiving no azide-modified sugar as controls. After 20 hours, cells were harvested with CellStripper (250 μl/well), washed with PBS, and subjected to flow analysis.

The test system of data set [5] is HeLa cells. Kind of data set: Surface template / ligation-template (LT) qPCR assay on azide-labeled HeLa cells. Conditions: HeLa cells treated with greater than 6 μM of AzNAM. Format: cell-based, human. From the text:
For example, a nuclease-resistant template (with a 2′-O-methyl RNA backbone) can be modified with a 5′ or 3′ DBCO group, allowing it to specifically react with azides on the surface of metabolically labeled cells. Following this, the template-bearing cells can be treated with two shorter “ligation template” (LT) oligonucleotides each complementary to contiguous regions of the template, and where one of the LT oligonucleotides bears a 5′-phosphate (LT1). After annealing, the 5′-phosphate of LT1 can be ligated with the 3′-hydroxyl on its partner LT (LT2) adjacent on the same template (see, FIG. 16). For this ligation, a ligase enzyme can be used that is compatible with modified nucleic acid backbones, such as Splint® Ligase (New England Biolabs). Since each LT oligonucleotide is also equipped with an additional priming site, the joined LT (1+2) sequence can be amplified by PCR, and can also easily be amenable to quantitation by qPCR. […]
To apply the surface template/LT assay to azide-labeled HeLa cells, cells were treated with several concentrations of AzNAM in 6-well plates at about 80% confluency. After 20 hours, cells were removed from the plate with CellStripper, washed with […] (SF-RPMI), and counted. […]
LT1 and LT2 oligonucleotides complementary to the surface template were added in equimolar quantities to a final concentration of 0.2 pmol/μl. […]
(In general: Quantitative PCR measures a nucleic acid by following its amplification.)

The subject of data set [6] is HeLa cells. The data set is described as follows: Azide metabolic labeling of HeLa cells with AzNAM, reaction with DBCO-FAM, fluorescent plate reader. It counts as cell-based, human. Conditions: AzNAM 10-125 μM, 20 hours, DBCO-FAM 10 μM, 96-well plate reader. The method, then:
Initially, cells were cultured in a suitable culture vessel such that their level of confluency at the time of addition of the azide-modified sugar, AzNAM, was not more than 80%.
In particular, HeLa cells were plated in 6-well plates (2.5×10^4 cells/well) and incubated for 48 hours in DMEM-10% FBS medium in a standard 5% CO2 atmosphere. Medium from each well was removed, and each well was washed with 2 ml of phosphate buffered saline (PBS), and fresh DMEM-FBS (1 ml) added. Subsequently, varying amounts of AzNAM (solubilized in DMSO) were added to the wells in small (10 μl) volumes to produce the desired final concentrations in the range 10-125 μM (see, FIG. 1). After an additional 20 hours incubation, the medium in each well was removed, and the wells were washed with 2 ml of PBS, followed by addition of 1 ml of PBS. Then, a fluorescent azide reactive molecule, DBCO-FAM (Broadpharm), was directly added to each well to produce a final concentration of 10 μM.
Plates with added DBCO-FAM were protected from bright light and incubated for 1 hour at room temperature. Supernatants in each well were removed, and each well was washed twice with 2 ml of PBS. […] After pelleting and washing in PBS, cells were resuspended in 150 μl of PBS and counted. Defined numbers in 50 μl volumes in a 96-well Blackwell plate (Corning) were assayed for fluorescence in a fluorescent plate reader (Tecan).

Values joined by “and” are separate entries in the source; they are usually repeats but may differ in a detail not shown here. Equal entries are not always repeated.

Take `Cc1ccc2c(=O)c3cccc(CC(=O)O)c3oc2c1C` [DMXAA]: the “geometric mean fluorescence (GM)” value in data set [1] (ID8/AzNAM+DMXAA: 20 μM DMXAA 3 days, 100 μM AzNAM 22 hr prior to harvest) stood at 33.73. Further, the “geometric mean fluorescence (GM)” value in data set [1] (ID8/Ctrl+DMXAA: 20 μM DMXAA 3 days, control solvent only) is recorded as 1.67. In addition, in data set [1] (ID8, 20 μM DMXAA 3 days), the “AzNAM/DPEG-FAM response enhancement relative to the untreated value” is on record as 1.8 fold and the “effect on comparably-treated DMSO controls” value is “no effect”.

For the molecule “complementary oligonucleotide: 5′/3′ FAM bi-labeled probe complementary to surface template, SEQ ID NO:72 (DNA TCCAGATGTCTTTGCTTTTCTTCAGGACACA; 5' and 3' FAM labels, chemistry not fully specified)”, the “fluorescent peak relative to cells incubated with control scrambled oligonucleotide” value with HeLa cells [2] is “significantly shifted fluorescent peak”.

As to `O=C(NCc1ccco1)c1ccc2c(c1)N(Cc1c(F)cccc1Cl)C(=O)CS2` [STAG1], in data set [3] (Jurkat, 50 μM STAG1 3 days), the “impact on control DMSO-treated cells” value is “minimal” and the “metabolic labeling enhancement relative to the untreated value” came out at 1.2 fold. Moreover, in data set [3] (Jurkats/AzNAM+STAG1: 50 μM STAG1 3 days, 100 μM AzNAM 22 hr prior to harvest), the “geometric mean fluorescence (GM)” value worked out at 325.69. Moreover, the “geometric mean fluorescence (GM)” value in data set [3] (Jurkats/DMSO+STAG1: 50 μM STAG1 3 days, control solvent only) amounted to 1.47.

As for `CC(=O)OC[C@H]1OC(OC(C)=O)[C@@H](NC(=O)CN=[N+]=[N-])[C@@H](OC(C)=O)[C@@H]1OC(C)=O` (some centres unmarked) [AzNAM, peracetylated N-azidoacetylmannosamine], the “flow analysis peak shift” value in the data set with HeLa cells [4] is “marked and well-demarcated peak shifts”. In data set [1] (ID8/AzNAM (Ctrl): 100 μM AzNAM at 22 hr prior to harvest, no-treatment control, DPEG-FAM), the “geometric mean fluorescence (GM)” value is 37.68 and 19.14. In addition, the “increase over background in formation of the templated LT product” value in the data set on HeLa cells [5] is reported as “over an order of magnitude”. Further, in the data set on HeLa cells [6], the cell-associated fluorescence result was “increased as a function of the levels of AzNAM”.

B1: mIFNβ: murine interferon-beta (protein, UniProt P01575 22-182, looked up)
Interferon beta: INYKQLQLQERTNIRKCQELLEQLNGKINLTYRADFKIPMEMTEKMQKSYTAFAIQEMLQNVFLVFRNNFSSTGWNETIVVRLLDELHQQTVFLKTVLEEKQEERLTWEMSSTALHLKSYYWRVQRYLKLMKYNSYAWMVVRAEIFRNFLIIRRLTRNFQN
In the case of B1, the “geometric mean fluorescence (GM)” value is 80.58 in data set [1] (ID8/AzNAM+mIFNβ: 100 ng/ml murine IFN-beta 3 days, 100 μM AzNAM 22 hr prior to harvest) and 16.49 in data set [1] (ID8/DMSO+mIFNβ: 100 ng/ml murine IFN-beta 3 days, control solvent only). The “labeling change in control DMSO cells” value in data set [1] (ID8, 100 ng/ml mIFNβ 3 days) is “much reduced labeling increase”. Also, the “labeling enhancement of AzNAM-treated cells relative to the untreated value” in data set [1] (ID8, 100 ng/ml mIFNβ 3 days) worked out at 2.1 fold.
